This is an account of results in ChEMBL document CHEMBL1140306 (J Med Chem, 2005).

For orientation: IC50 means the point on the concentration scale where inhibition reaches its midpoint. One may read the inhibition as the percentage by which the read-out fell short of the control.

In assay [1] the target is Cholinesterases; ACHE & BCHE (Homo sapiens) (UniProt P06276+P22303). The experiment in a line: Ratio of IC50 for human BuChE and AChE. The assay is classed as protein assay.
Assay [2] has as its target T1, Acetylcholinesterase (Homo sapiens, UniProt P22303). The experiment in a line: Inhibition of recombinant human AChE.
The next assay deals with Cholinesterase (Homo sapiens, UniProt P06276). The experiment in a line: Inhibition of isolated human BuChE.
Assay [3] concerns the target T1, Acetylcholinesterase. Put plainly: Inhibition of human AChE induced beta-amyloid aggregation in thioflavin T-based fluorometric assay. Particulars: concentration not given here. In kind it is functional. Also noted: concentration or dose not given beside the values.

SMILES strings stand for the structures.

Chain of Cholinesterase (P06276 whole entry): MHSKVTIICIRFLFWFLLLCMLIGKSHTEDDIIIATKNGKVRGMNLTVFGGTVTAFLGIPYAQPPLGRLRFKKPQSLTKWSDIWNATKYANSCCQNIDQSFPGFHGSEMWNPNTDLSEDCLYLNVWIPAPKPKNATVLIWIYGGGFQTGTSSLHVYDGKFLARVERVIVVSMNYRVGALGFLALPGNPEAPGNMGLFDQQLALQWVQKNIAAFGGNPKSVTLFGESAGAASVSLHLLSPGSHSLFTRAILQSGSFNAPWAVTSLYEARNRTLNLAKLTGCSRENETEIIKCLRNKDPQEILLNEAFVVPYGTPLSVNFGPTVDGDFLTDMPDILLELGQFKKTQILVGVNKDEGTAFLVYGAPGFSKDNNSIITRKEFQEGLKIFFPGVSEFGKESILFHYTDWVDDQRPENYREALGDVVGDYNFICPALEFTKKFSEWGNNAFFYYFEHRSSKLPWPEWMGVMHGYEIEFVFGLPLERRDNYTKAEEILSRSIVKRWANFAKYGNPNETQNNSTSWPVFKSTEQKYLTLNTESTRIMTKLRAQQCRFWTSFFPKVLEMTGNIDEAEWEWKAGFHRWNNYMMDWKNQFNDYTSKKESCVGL
Chain of Cholinesterases; ACHE & BCHE (Homo sapiens) (P06276 whole entry, looked up): as the sequence (P06276 whole entry) above
Chain of Cholinesterases; ACHE & BCHE (Homo sapiens) (P22303 whole entry, looked up): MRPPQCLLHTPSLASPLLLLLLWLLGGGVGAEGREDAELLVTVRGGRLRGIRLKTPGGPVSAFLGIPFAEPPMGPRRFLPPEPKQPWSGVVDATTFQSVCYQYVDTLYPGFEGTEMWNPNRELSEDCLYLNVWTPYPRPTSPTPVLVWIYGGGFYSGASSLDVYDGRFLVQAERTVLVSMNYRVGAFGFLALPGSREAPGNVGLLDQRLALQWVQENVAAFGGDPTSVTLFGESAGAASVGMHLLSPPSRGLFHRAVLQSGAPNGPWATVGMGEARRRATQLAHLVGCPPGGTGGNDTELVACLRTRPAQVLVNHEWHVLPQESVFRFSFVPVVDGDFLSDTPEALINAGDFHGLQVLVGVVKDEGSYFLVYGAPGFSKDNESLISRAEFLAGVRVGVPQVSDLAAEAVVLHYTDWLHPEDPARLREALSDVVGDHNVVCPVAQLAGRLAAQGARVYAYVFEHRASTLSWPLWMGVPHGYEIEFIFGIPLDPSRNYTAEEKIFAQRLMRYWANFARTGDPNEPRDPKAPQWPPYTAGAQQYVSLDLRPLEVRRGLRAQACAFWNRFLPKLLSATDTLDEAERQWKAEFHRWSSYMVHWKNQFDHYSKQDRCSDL
T1 sequence (P22303 whole entry): as the sequence (P22303 whole entry, looked up) above

`CNC(=O)Oc1cccc(CN(C)CCCCCCCOc2ccc3c(c2)O/C(=C\c2c4ccccc4cc4ccccc24)C3=O)c1`: the Ratio in assay [1] is 9.6. For the same compound, the IC50 stood at 79.1 nM at Acetylcholinesterase [2] and 761 nM against Cholinesterase. At Acetylcholinesterase [3], the inhibition is 65.3%.
On the same counts, the results for `CNC(=O)Oc1cccc(CN(C)CCCOc2ccc3c(c2)O/C(=C\c2ccc4ccccc4c2)C3=O)c1` are 20.6, 3.41 nM, 70.3 nM and 35%.
On the same counts, the results for `CNC(=O)Oc1cccc(CN(C)CCCCCCCOc2ccc3c(c2)CC/C(=C\c2cc(OC)c(OC)c(OC)c2)C3=O)c1` are 17.1, 4.94 nM, 84.4 nM and 33.3%.
With `CNC(=O)Oc1cccc(CN(C)CCCCCCCOc2ccc3c(c2)C/C(=C\c2cc(OC)c(OC)c(OC)c2)C3=O)c1`, in assay [1], the Ratio came to 45.2. In addition, the concentration for half-maximal inhibition (IC50) was found to be 1.8 nM on Acetylcholinesterase [2] and 81.3 nM at Cholinesterase. Besides, the inhibition on Acetylcholinesterase [3] stood at 32.8%.
As for `CNC(=O)Oc1cccc(CN(C)CCCOc2ccc3c(c2)O/C(=C\c2cccc4ccccc24)C3=O)c1`, in assay [1], the Ratio turned out to be 6.45. Besides, the half-maximal inhibitory concentration (IC50) is 6.86 nM on Acetylcholinesterase [2] and 44.3 nM against Cholinesterase. At Acetylcholinesterase [3], the inhibition worked out at 37.2%.
On the same counts, the results for `CNC(=O)Oc1cccc(CN(C)CCCCCCCOc2ccc3c(c2)O/C(=C\c2cc(Cl)cc(Cl)c2)C3=O)c1` are 2.91, 44.6 nM, 130 nM and 47.6%.
Consider `CNC(=O)Oc1cccc(CN(C)CCCOc2ccc3c(=O)c4ccccc4oc3c2)c1`, for which the inhibition on Acetylcholinesterase [3] was < 10%.
In the case of `CNC(=O)Oc1cccc(CN(C)CCCCCCCOc2ccc3c(c2)OCC3=O)c1`, in assay [1], the Ratio was 7.08. Half-maximal inhibition against Cholinesterase (IC50) required 11400 nM. Moreover, at Acetylcholinesterase [3], the inhibition turned out to be 17.5%.
Regarding `CNC(=O)Oc1cccc(CN(C)CCCCCCCOc2ccc3c(c2)O/C(=C\c2cc(OC)c(OC)c(OC)c2)C3=O)c1`, the Ratio in assay [1] was 261. In addition, the figures for the IC50 on Acetylcholinesterase [2] and against Cholinesterase were 0.52 nM and 136 nM, respectively. The compound further showed an inhibition at Acetylcholinesterase [3] of 41%.
On the same counts, the results for `CNC(=O)Oc1cccc(CN(C)CCCOc2ccc3c(c2)O/C(=C\c2cc(OC)c(OC)c(OC)c2)C3=O)c1` are 51.8, 2.99 nM, 155 nM and 29.2%.
With `CNC(=O)Oc1cccc(CN(C)CCCCCCCOc2ccc3c(c2)O/C(=C\c2ccccc2)C3=O)c1`, in assay [1], the Ratio worked out at 29.7. For the same compound, the IC50 at Acetylcholinesterase [2] came out at 1.95 nM; against Cholinesterase, 57.9 nM. Also, the inhibition against Acetylcholinesterase [3] was found to be 43.3%.
In the case of `CNC(=O)Oc1cccc(CN(C)CCCCCCCOc2ccc3c(c2)O/C(=C\c2ccc(Cl)c(Cl)c2)C3=O)c1`, the Ratio in assay [1] amounted to 11.8. The IC50 at Acetylcholinesterase [2] was determined as 8 nM; against Cholinesterase, 94.6 nM. Besides, the inhibition against Acetylcholinesterase [3] is 49.1%.
`CNC(=O)Oc1ccc2c(c1)[C@]1(C)CCN(C)[C@@H]1N2C`: the inhibition against Acetylcholinesterase [3] stood at 30%.
Regarding `CNC(=O)Oc1cccc(CN(C)CCCCCCCOc2ccc3c(c2)OC/C(=C\c2cc(OC)c(OC)c(OC)c2)C3=O)c1`, in assay [1], the Ratio is 15.6. In addition, the IC50 on Acetylcholinesterase [2] stood at 9.81 nM; against Cholinesterase, 153 nM. The inhibition on Acetylcholinesterase [3] amounted to 45.3%.
Turning to `CNC(=O)Oc1cccc(CN(C)CCCCCCCOc2ccc3c(c2)O/C(=C\c2cccc4ccccc24)C3=O)c1`, the Ratio in assay [1] stood at 14.5. Moreover, the IC50 on Acetylcholinesterase [2] is 2.76 nM; on Cholinesterase it was 40.2 nM. For the same compound, at Acetylcholinesterase [3], the inhibition is 66.7%.
Turning to `CN(CCCCCCCOc1ccc2c(c1)O/C(=C\c1cccc3ccccc13)C2=O)Cc1cccc(O)c1`, in assay [1], the Ratio was determined as 0.09. Moreover, the inhibition on Acetylcholinesterase [3] came out at 49.5%.
On the same counts, the results for `CNC(=O)Oc1cccc(CN(C)CCCCCCCOc2ccc3c(=O)c4ccccc4oc3c2)c1` are 51.6 and < 10%.
